IC50 data for 11 compounds are collected here from US10689331B2, “IDO inhibitors” (Bristol-Myers Squibb Company, priority 2015, dated 2020).

The structures appear in SMILES notation. Structures can show the parent of a compound that is named as a salt.

The term IC50 denotes the concentration at which inhibition is half-maximal.

T1 sequence (P14902 whole entry): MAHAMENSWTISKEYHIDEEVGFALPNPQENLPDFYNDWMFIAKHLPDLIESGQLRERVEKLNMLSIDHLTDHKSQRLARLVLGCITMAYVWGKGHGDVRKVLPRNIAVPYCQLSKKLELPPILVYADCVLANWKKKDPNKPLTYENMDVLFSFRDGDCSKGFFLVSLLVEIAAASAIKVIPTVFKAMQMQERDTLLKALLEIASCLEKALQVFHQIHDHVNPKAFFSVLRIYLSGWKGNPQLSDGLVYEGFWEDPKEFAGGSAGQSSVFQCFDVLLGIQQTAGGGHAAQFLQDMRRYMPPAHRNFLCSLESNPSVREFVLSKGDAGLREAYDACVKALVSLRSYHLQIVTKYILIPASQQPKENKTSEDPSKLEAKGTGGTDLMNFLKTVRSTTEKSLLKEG

The assay has as its target T1, human IDO1 (Homo sapiens, UniProt P14902).
T1 construct: expressed in transfected cells
Description: HEK Human IDO-1 inhibition assay (kynurenine readout, Ehrlich reagent, absorbance 490 nm). It is filed as cell-based. The following applies: human IDO1/HEK293 cells, incubated 20 hours with compound; 500 nM reference standard = 100% inhibition. The method, then:
HEK293 cells were transfected with a pCDNA-based mammalian expression vector harboring human IDO1 cDNA (NM 002164.2) by electroporation. They were cultured in medium (DMEM with 10% FBS) containing 1 mg/ml G418 for two weeks. Clones of HEK293 cells that stably expressed human IDO1 protein were selected and expanded for IDO inhibition assay.
The human IDO1/HEK293 cells were seeded at 10,000 cells per 50 uL per well with RPMI/phenol red free media contains 10% FBS in a 384-well black wall clear bottom tissue culture plate (Matrix Technologies LLC) 100 nL of certain concentration of compound was then added to each well using ECHO liquid handling systems. The cells were incubated for 20 hours in 37° C. incubator with 5% CO2.
The compound treatments were stopped by adding Trichloroacetic Acid (Sigma-Aldrich) to a final concentration at 0.2%. The cell plate was further incubated at 50° C. for 30 minute. The equal volume supernatant (20 uL) and 0.2% (w/v) Ehrlich reagent (4-dimethylaminobenzaldehyde, Sigma-Aldrich) in glacial acetic acid were mixed in a new clear bottom 384-well plate. This plate was then incubated at room temperature for 30 minute. The absorbance at 490 nm was measured on Envision plate reader. Compound IC50 values were calculated using the counts of 500 nM of a reference standard treatment as one hundred percent inhibition, and counts of no compound but DMSO treatment as zero percent inhibition.
On to `CCCC(Oc1ccc(N(CC(C)C)C2CCCCC2)c(NC(=O)Nc2cncnc2)c1)C(=O)O` (single isomer, unassigned) [Example 88-2, 2-(4-(cyclohexyl(isobutyl)amino)-3-(3-(pyrimidin-5-yl)ureido)phenoxy)pentanoic acid], for which the IC50 is < 100 nM.

In the case of `COCC(Oc1ccc(N(CC(C)C)C2CCCCC2)c(NC(=O)Nc2ccc(Cl)cc2F)c1)C(=O)O` (single isomer, unassigned) [Example 89-1, 2-(3-(3-(4-chloro-2-fluorophenyl)ureido)-4-(cyclohexyl(isobutyl)amino)phenoxy)-3-methoxypropanoic acid], the IC50 was < 5 nM.

Consider `COCC(Oc1ccc(N(CC(C)C)C2CCCCC2)c(NC(=O)Nc2ccc(Cl)cc2F)c1)C(=O)O` (single isomer, unassigned) [Example 89-2, 2-(3-(3-(4-chloro-2-fluorophenyl)ureido)-4-(cyclohexyl(isobutyl)amino)phenoxy)-3-methoxypropanoic acid], for which the IC50 was < 100 nM.

`COCC(Oc1ccc(N(CC(C)C)C2CCCCC2)c(NC(=O)Nc2ccc(C)cc2)c1)C(=O)O` (single isomer, unassigned) [Example 90-1, 2-(4-(cyclohexyl(isobutyl)amino)-3-(3-(p-tolyl)ureido)phenoxy)-3-methoxypropanoic acid]: the half-maximal inhibitory concentration (IC50) is ≥ 100 nM.

For `COCC(Oc1ccc(N(CC(C)C)C2CCCCC2)c(NC(=O)Nc2ccc(C)cc2)c1)C(=O)O` (single isomer, unassigned) [Example 90-2, 2-(4-(cyclohexyl(isobutyl)amino)-3-(3-(p-tolyl)ureido)phenoxy)-3-methoxypropanoic acid], the IC50 was < 100 nM.

With `CC(C)CN(c1cc(F)c(OC(C)C(=O)O)cc1NC(=O)Nc1ccc(Cl)cc1F)C1CCCCC1` (single isomer, unassigned) [Example 136-1, 2-(5-(3-(4-chloro-2-fluorophenyl)ureido)-4-(cyclohexyl(isobutyl)amino)-2-fluorophenoxy)propanoic acid.TFA], the IC50 is < 5 nM.

Consider `C=C(C)CN(c1ccc(OC(C)C(=O)O)cc1NC(=O)Nc1ccc(Cl)cc1F)C1CCOCC1` (single isomer, unassigned) [Example 139-1, 2-(3-(3-(4-chloro-2-fluorophenyl)ureido)-4-((2-methylallyl)(tetrahydro-2H-pyran-4-yl)amino)phenoxy)propanoic acid], for which the IC50 was < 100 nM.

On to `C=C(C)CN(c1ccc(OC(C)C(=O)O)cc1NC(=O)Nc1ccc(Cl)cc1F)C1CCOCC1` (single isomer, unassigned) [Example 139-2, 2-(3-(3-(4-chloro-2-fluorophenyl)ureido)-4-((2-methylallyl)(tetrahydro-2H-pyran-4-yl)amino)phenoxy)propanoic acid], for which the IC50 is < 5 nM.

For `CCC(Oc1ccc(N(CC(C)C)C2CCOCC2)c(NC(=O)Nc2ccc(Cl)cc2F)c1)C(=O)O` (single isomer, unassigned) [Example 143-1, 2-(3-(3-(4-chloro-2-fluorophenyl)ureido)-4-(isobutyl(tetrahydro-2H-pyran-4-yl)amino)phenoxy)butanoic acid], the IC50 was < 100 nM.

Turning to `CCC(Oc1ccc(N(CC(C)C)C2CCOCC2)c(NC(=O)Nc2ccc(Cl)cc2F)c1)C(=O)O` (single isomer, unassigned) [Example 143-2, 2-(3-(3-(4-chloro-2-fluorophenyl)ureido)-4-(isobutyl(tetrahydro-2H-pyran-4-yl)amino)phenoxy)butanoic acid], the IC50 was < 5 nM.

Turning to `CC(C)CN(c1ccc(OC(C)C(=O)O)cc1NC(=O)Nc1ccc(Cl)cc1F)C1CCOC1` (single isomer, unassigned) [Example 146-1, 2-(3-(3-(4-chloro-2-fluorophenyl)ureido)-4-(isobutyl(tetrahydrofuran-3-yl)amino)phenoxy)propanoic acid], the IC50 was ≥ 100 nM.
